# Measurements as given in publication PMC3038857, “Using Nuclear Receptor Activity to Stratify Hepatocarcinogens” (PLoS ONE, 2011).
# Legend:
# Rat Liver [1] = settings: chronic study, rat liver; ref ToxRefDB; cited from earlier work
# Rat Liver [2] = settings: chronic study, rat liver; ref ToxRefDB; cited from earlier work; remark: listed apart in the source
# CYP1A1 = assay: CLZD_CYP1A1: Change in expression of CYP1A1 (primary human hepatocytes); type: cell-based; settings: 24 hr
# How it was run: (§1)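 Cultured primary human hepatocytes treated with chemicals for 6, 24 or 48 hr across five concentrations spanning 0.004-40 µM, then transcript level measured by quantitative nuclease protection in a multiplexed format.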
# [3] = biological target: T1, PPARG (peroxisome proliferator-activated receptor gamma) (Homo sapiens, UniProt P37231); assay: ATG_PPARg_TRANS: Factorial reporter gene assay (HepG2); type: cell-based; settings: HepG2 reporter
# T1 construct: expressed in transfected cells; host or cells: HepG2
# T1 sequence (P37231 1-505): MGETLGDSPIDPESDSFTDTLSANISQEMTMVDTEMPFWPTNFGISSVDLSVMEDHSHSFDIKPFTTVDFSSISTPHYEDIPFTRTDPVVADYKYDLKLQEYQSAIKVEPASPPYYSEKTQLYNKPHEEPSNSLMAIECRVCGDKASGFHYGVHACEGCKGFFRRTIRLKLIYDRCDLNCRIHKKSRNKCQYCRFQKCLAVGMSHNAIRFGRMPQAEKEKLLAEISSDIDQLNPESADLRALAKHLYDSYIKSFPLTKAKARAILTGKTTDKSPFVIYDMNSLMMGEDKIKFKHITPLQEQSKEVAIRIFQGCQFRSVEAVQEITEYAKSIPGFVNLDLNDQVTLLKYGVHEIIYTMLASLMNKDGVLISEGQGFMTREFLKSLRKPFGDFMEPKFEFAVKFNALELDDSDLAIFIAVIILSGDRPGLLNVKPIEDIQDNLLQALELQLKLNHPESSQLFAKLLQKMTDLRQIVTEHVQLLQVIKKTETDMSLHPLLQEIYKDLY
# How it was run: (§2)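 Compounds at seven concentrations (top at MTC, threefold serial) were applied to transfected HepG2 hepatoma cells, with PXRE scored by cis-element reporters and ERRg, FXR and PPARg scored by trans one-hybrid nuclear receptor reporters.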
# Rat Liver [4] = settings: chronic study, rat liver; ref ToxRefDB; cited from earlier work; remark: listed apart in the source
# CYP2B6 = assay: CLZD_CYP2B6: Change in expression of CYP2B6 (primary human hepatocytes); type: cell-based; settings: 24 hr
# How it was run: as §1
# CYP1A2 = assay: CLZD_CYP1A2: Change in expression of CYP1A2 (primary human hepatocytes); type: cell-based; settings: 24 hr
# How it was run: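 Chemicals are tested in human hepatocyte primary cultures over 0.004-40 µM (5 concentrations) for 6, 24 or 48 hr, and concentration- and time-dependent transcript changes are read by quantitative nuclease protection assay.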
# LXRb (NR1H2) = biological target: T2, LXRb (NR1H2) (Homo sapiens, UniProt P55055); assay: ATG_LXRb_TRANS: Factorial reporter gene assay (HepG2); type: cell-based; settings: HepG2 reporter
# T2 construct: expressed in transfected cells; host or cells: HepG2
# T2 sequence (P55055 1-460): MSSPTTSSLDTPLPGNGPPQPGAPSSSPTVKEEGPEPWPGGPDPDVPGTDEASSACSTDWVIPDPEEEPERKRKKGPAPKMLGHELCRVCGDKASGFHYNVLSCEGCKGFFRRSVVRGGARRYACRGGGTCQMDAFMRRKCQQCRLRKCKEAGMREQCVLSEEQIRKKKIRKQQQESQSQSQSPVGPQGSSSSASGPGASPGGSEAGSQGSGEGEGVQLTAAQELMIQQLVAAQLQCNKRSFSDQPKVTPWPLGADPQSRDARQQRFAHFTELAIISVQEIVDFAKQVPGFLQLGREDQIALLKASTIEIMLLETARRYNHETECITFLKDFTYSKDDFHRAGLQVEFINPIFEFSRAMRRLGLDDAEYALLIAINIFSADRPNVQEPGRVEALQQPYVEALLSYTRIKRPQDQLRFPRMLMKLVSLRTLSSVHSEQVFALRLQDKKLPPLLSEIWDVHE
# Protocol: A multiple reporter transcription unit (MRTU) library consisting of 48 transcription factor binding sites was transfected into the HepG2 human liver hepatoma cell line. In addition to the cis-acting reporter genes (CIS), a modification of the approach was used to generate a trans-system (TRANS) with a mammalian one-hybrid assay consisting of an additional 25 MRTU library reporting the activity of nuclear receptor super-family members. […] These assays were performed by Attagene Inc. (Morrisville NC) under contract to EPA.
# In addition to the cis-acting reporter genes (CIS), a modification of the approach was used to generate a trans-system (TRANS) with a mammalian one-hybrid assay consisting of an additional 25 MRTU library reporting the activity of nuclear receptor super-family members. […] Chemicals were then tested in the CIS and TRANS assays at seven concentrations starting at the MTC and followed by three-fold serial dilutions. These assays were performed by Attagene Inc. (Morrisville NC) under contract to EPA. Detailed description of the methods, data and analysis methods for this dataset will be presented in a separate publication.
# Mouse Liver [5] = settings: chronic study, mouse liver; ref ToxRefDB; cited from earlier work
# Mouse Liver [6] = settings: chronic study, mouse liver; ref ToxRefDB; cited from earlier work; remark: listed apart in the source
# Mouse Liver [7] = settings: chronic study, mouse liver; ref ToxRefDB; cited from earlier work; remark: listed apart in the source
# PXR Human (NR1I2) = biological target: T3, PXR Human (NR1I2) (Homo sapiens, UniProt O75469); assay: NCGC_PXR_Agonist_human: GAL4 BLAM Reporter gene assay: PXR Human; type: cell-based; settings: agonist mode
# T3 sequence (O75469 146-434 limits assumed): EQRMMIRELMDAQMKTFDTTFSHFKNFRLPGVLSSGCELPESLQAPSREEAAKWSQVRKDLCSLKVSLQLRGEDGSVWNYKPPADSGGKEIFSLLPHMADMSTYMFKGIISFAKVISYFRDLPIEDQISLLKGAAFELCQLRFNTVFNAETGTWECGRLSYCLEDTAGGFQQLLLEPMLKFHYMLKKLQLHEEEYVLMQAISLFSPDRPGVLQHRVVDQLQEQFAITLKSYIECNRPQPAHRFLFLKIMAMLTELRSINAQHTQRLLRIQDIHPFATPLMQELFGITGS
# Protocol: These assays measure binding constants and enzyme inhibition values for nuclear receptors. The targets include [drawing 67] , [drawing 68] , [drawing 69] , [drawing 70] , [drawing 71] , [drawing 72] , [drawing 73] , [drawing 74] , [drawing 75] and [drawing 76] . Each of the nuclear receptor targets was measured in agonist mode. Assays were run at the NIH Chemical Genomics Center (Rockville, MD).
# Cell-based HTS Assays: These assays measuring binding constants and enzyme inhibition values for nuclear receptors. The targets include AR, ER, FXR, LXR, PPARα, PPARδ, PPARγ, RXRα, RXRβ and PXR. Each of the nuclear receptor targets was measured in both agonist and antagonist mode, but the antagonist data is still undergoing analysis due to possible interference between cytotoxicity and assay activity, so antagonist mode data were not used in the present analysis. Assays were run at the NIH Chemical Genomics Center (Rockville, MD) as part of the Tox21 collaboration. […] The R^2 was required to be ≥0.5. Values where only the highest concentration exceeded 50% activity were excluded to eliminate weak or false positives. Detailed description of the methods, data and analysis methods for this dataset will be presented in a separate publication.
# PXR (NR1I2) [8] = biological target: T4, PXR (NR1I2) (Homo sapiens, UniProt O75469); assay: NVS_NR_hPXR: Human PXR Fluormone PXR (SXR) green (cell-free HTS); type: binding
# T4 sequence (O75469 1-434): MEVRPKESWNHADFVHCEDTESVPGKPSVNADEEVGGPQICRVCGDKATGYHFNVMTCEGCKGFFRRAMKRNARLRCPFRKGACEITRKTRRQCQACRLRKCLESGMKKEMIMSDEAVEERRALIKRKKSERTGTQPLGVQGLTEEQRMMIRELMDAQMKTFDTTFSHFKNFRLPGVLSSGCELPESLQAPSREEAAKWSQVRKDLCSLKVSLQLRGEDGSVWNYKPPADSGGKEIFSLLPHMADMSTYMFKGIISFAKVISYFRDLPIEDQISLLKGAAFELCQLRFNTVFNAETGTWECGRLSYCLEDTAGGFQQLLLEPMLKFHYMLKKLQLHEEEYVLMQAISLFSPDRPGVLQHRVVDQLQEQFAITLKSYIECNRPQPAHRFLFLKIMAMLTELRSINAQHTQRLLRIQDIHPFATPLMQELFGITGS
# How it was run: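 Cell-free biochemical binding assays; chemicals first screened at a single concentration of 25 […] M in duplicate wells. Signals normalised to same-plate solvent controls as percent of neutral control, and AC50 values came from Hill-equation fits of concentration-response curves.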
# PXR (NR1I2) [9] = biological target: T4, PXR (NR1I2); assay: ATG_PXRE_CIS: Factorial reporter gene assay (HepG2); type: cell-based; set-up: endogenous in cells; host or cells: HepG2; settings: HepG2 reporter
# How it was run: as §2
# PXR (NR1I2) [10] = biological target: T4, PXR (NR1I2); assay: ATG_PXR_TRANS: Factorial reporter gene assay (HepG2); type: cell-based; set-up: endogenous in cells; host or cells: HepG2; settings: HepG2 reporter
# How it was run: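 Seven concentrations per chemical, three-fold dilutions down from the MTC, were tested in HepG2 hepatoma cells. Those cells carried a multiple reporter transcription unit library, read either as cis transcription-factor-site reporters or as a trans mammalian one-hybrid panel for nuclear receptors.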
# CYP3A4 = assay: CLZD_CYP3A4: Change in expression of CYP3A4 (primary human hepatocytes); type: cell-based; settings: 24 hr
# How it was run: as §1
# ABCB1 = assay: CLZD_ABCB1: Change in expression of ABCB1 (primary human hepatocytes); type: cell-based; settings: 24 hr
# Protocol: This is a collection of multiplexed gene expression assays focused on Phase I and II xenobiotic metabolizing enzymes and transporters. Human primary cell cultures were treated with chemicals at 5 concentrations (0.004-40 [drawing 42] M) for 6, 24 and 48 hr. Concentration- and time-response profiles of chemicals were measured by the expression of key nuclear receptor target genes, activities of CYP1A enzymes (EROD), and cell morphology. Fourteen gene targets were monitored by quantitative nuclease protection assay including: six representative cytochrome P-450 genes, four hepatic transporters, three Phase II conjugating enzymes, and one endogenous metabolism gene involved in cholesterol synthesis. The target genes associated with nuclear receptor pathways are as follows: [drawing 43] and [drawing 44] with [drawing 45]; [drawing 46] , [drawing 47] , [drawing 48] , [drawing 49] , [drawing 50] and [drawing 51] with [drawing 52]; [drawing 53] , [drawing 54] , [drawing 55] and [drawing 56] with [drawing 57]; [drawing 58] with [drawing 59]; and [drawing 60] with [drawing 61] . Assays were run in primary human hepatocyte cultures by CellzDirect Invitrogen Inc. (Durham, NC), in collaboration with EPA.
# Multiplexed Gene Expression in Human Primary Hepatocytes: This is a collection of multiplexed gene expression assays focused on Phase I and II metabolic enzymes and transporters. […] Fourteen gene targets were monitored by quantitative nuclease protection assay: six representative cytochrome P450 genes, four hepatic transporters, three Phase II conjugating enzymes, and one endogenous metabolism gene involved in cholesterol synthesis. Cells were exposed at 5 concentrations (0.004-40 µM) for 6, 24 or 48 hr. Gene targets are sentinels for five nuclear receptor signaling pathways: AhR, CAR, PXR, FXR, and PPARα. All gene are associated with nuclear receptor pathways: CYP1A1 and CYP1A2 with AHR; ABCB1, ABCG2, CYP2B6, CYP2C9, CYP2C19 and UGT1A1 with CAR; CYP3A4, GSTA2, SLCO1B1 and SULT2A1 with PXR; HMGCS2 with PPARA; and ABCB11 with FXR. […] Detailed description of the methods, data and analysis methods for this dataset will be presented in a separate publication.
Compound,CHR_Rat_Liver_3_NeoplasticLesion (Rat Liver [1]),CHR_Rat_Liver_1_AnyLesion (Rat Liver [2]),CLZD_CYP1A1_24 (CYP1A1),ATG_PPARg_TRANS [3],CHR_Rat_Liver_2_PreneoplasticLesion (Rat Liver [4]),CLZD_CYP2B6_24 (CYP2B6),CLZD_CYP1A2_24 (CYP1A2),ATG_LXRb_TRANS (LXRb (NR1H2)),CHR_Mouse_Liver_2_PreneoplasticLesion (Mouse Liver [5]),CHR_Mouse_Liver_1_AnyLesion (Mouse Liver [6]),CHR_Mouse_Liver_3_NeoplasticLesion (Mouse Liver [7]),NCGC_PXR_Agonist_human (PXR Human (NR1I2)),NVS_NR_hPXR (PXR (NR1I2) [8]),ATG_PXRE_CIS (PXR (NR1I2) [9]),ATG_PXR_TRANS (PXR (NR1I2) [10]),CLZD_CYP3A4_24 (CYP3A4),CLZD_ABCB1_24 (ABCB1)
Cc1cc(C)nc(Nc2ccccc2)n1 [r273],0,6,4.775,4.137,6,5.27,4.839,4.237,–,–,–,–,–,–,–,–,–
Cc1[nH]c(=O)n(C(C)(C)C)c(=O)c1Cl [r296],–,–,5.327,–,–,5.239,–,4.119,6,6,6,–,–,–,–,–,–
C#CC(C)(C)NC(=O)c1cc(Cl)cc(Cl)c1 [r265],0,6,–,–,0,5.253,–,–,6,6,6,4.619,4.411,4.824,4.409,4.621,5.227
CC/C(=N\OC/C=C/Cl)C1=C(O)CC(C2CCOCC2)CC1=O (stereo not shown) [r295],6,6,–,–,6,–,–,4.194,6,6,6,–,–,–,–,–,–
